Several values for one entry are separate records, joined by “and”; a condition that tells them apart may be missing. Identical values can stand only once.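 In this assay, cells in 96-well plates receive the compound at five concentrations for 48 hours. Endpoints are linearly interpolated between the surrounding concentrations. Here, GI50 denotes the concentration required for 50% inhibition of growth. TGI: concentration producing complete growth inhibition.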
How the values were obtained:
Experiment in all cases: DTP human tumour cell line panel, 48 h
786-0 renal = system: 786-0 renal
A498 renal = system: A498 renal
A549 NSCLC = system: A549 NSCLC
ACHN renal = system: ACHN renal
BT-549 breast = system: BT-549 breast
CAKI-1 renal = system: CAKI-1 renal
CCRF-CEM leukemia = system: CCRF-CEM leukemia
COLO 205 colon = system: COLO 205 colon
DU-145 prostate = system: DU-145 prostate
HCC-2998 colon = system: HCC-2998 colon
HCT-116 colon = system: HCT-116 colon
HCT-15 colon = system: HCT-15 colon
HL-60(TB) leukemia = system: HL-60(TB) leukemia
HOP-62 NSCLC = system: HOP-62 NSCLC
HOP-92 NSCLC = system: HOP-92 NSCLC
HS 578T breast = system: HS 578T breast
HT29 colon = system: HT29 colon
IGROV1 ovarian = system: IGROV1 ovarian
K-562 leukemia = system: K-562 leukemia
KM12 colon = system: KM12 colon
LOX IMVI melanoma = system: LOX IMVI melanoma
M14 melanoma = system: M14 melanoma
MALME-3M melanoma = system: MALME-3M melanoma
MCF7 breast = system: MCF7 breast
MDA-MB-231 breast = system: MDA-MB-231 breast
MDA-MB-435 = system: MDA-MB-435
MOLT-4 leukemia = system: MOLT-4 leukemia
NCI-H226 lung = system: NCI-H226 lung
NCI-H23 lung = system: NCI-H23 lung
NCI-H460 lung = system: NCI-H460 lung
NCI-H522 lung = system: NCI-H522 lung
NCI/ADR-RES ovarian = system: NCI/ADR-RES ovarian
OVCAR-3 ovarian = system: OVCAR-3 ovarian
OVCAR-4 ovarian = system: OVCAR-4 ovarian
OVCAR-5 ovarian = system: OVCAR-5 ovarian
OVCAR-8 ovarian = system: OVCAR-8 ovarian
PC-3 prostate = system: PC-3 prostate
RPMI-8226 leukemia = system: RPMI-8226 leukemia
RXF 393 renal = system: RXF 393 renal
SF-268 CNS = system: SF-268 CNS
SF-295 CNS = system: SF-295 CNS
SF-539 CNS = system: SF-539 CNS
SK-MEL-2 melanoma = system: SK-MEL-2 melanoma
SK-MEL-28 melanoma = system: SK-MEL-28 melanoma
SK-MEL-5 melanoma = system: SK-MEL-5 melanoma
SK-OV-3 ovarian = system: SK-OV-3 ovarian
SN12C renal = system: SN12C renal
SNB-19 CNS = system: SNB-19 CNS
SNB-75 CNS = system: SNB-75 CNS
SR leukemia = system: SR leukemia
SW-620 colon = system: SW-620 colon
T-47D breast = system: T-47D breast
TK-10 renal = system: TK-10 renal
U251 CNS = system: U251 CNS
UACC-257 melanoma = system: UACC-257 melanoma
UACC-62 melanoma = system: UACC-62 melanoma
UO-31 renal = system: UO-31 renal

With `O=C1NC(=NC(CO)Cc2ccccc2)S/C1=C\c1ccc2ncccc2c1` (stereo not drawn) the GI50 (786-0 renal) was > 25 µM and 6.96 µM, the TGI (786-0 renal) was greater than 25 µM and the GI50 (A498 renal) was > 15.2 µM and 1.96 µM. The TGI (A498 renal) was > 25 µM and 7.67 µM, the GI50 (A549 NSCLC) was 16.4 µM and 2.96 µM and the TGI (A549 NSCLC) was greater than 25 µM. For the same molecule, the GI50 (ACHN renal) was 11.2 µM and 3.55 µM, the TGI (ACHN renal) was greater than 25 µM and the TGI (BT-549 breast) was > 25 µM and 11.4 µM. For the same molecule, the GI50 (CAKI-1 renal) was 9.35 µM and 3.64 µM, the TGI (CAKI-1 renal) was greater than 25 µM and the GI50 (CCRF-CEM leukemia) was 10.6 µM and 4.89 µM. The TGI (CCRF-CEM leukemia) was greater than 25 µM, the GI50 (COLO 205 colon) was 9.23 µM and 1.86 µM and the TGI (COLO 205 colon) was greater than 25 µM. The GI50 (DU-145 prostate) was 18.8 µM and 2.62 µM, the TGI (DU-145 prostate) was greater than 25 µM and the GI50 (HCC-2998 colon) was 13.9 µM and 8.02 µM. The TGI (HCC-2998 colon) was greater than 25 µM, the GI50 (HCT-116 colon) was 9.89 µM and 1.13 µM and the TGI (HCT-116 colon) was greater than 25 µM. The GI50 (HCT-15 colon) was 10.5 µM and 4.19 µM, the TGI (HCT-15 colon) was greater than 25 µM and the GI50 (HL-60(TB) leukemia) was 9.76 µM and 3.88 µM. For the same molecule, the TGI (HL-60(TB) leukemia) was > 25 µM and 14.3 µM, the GI50 (HOP-62 NSCLC) was > 23.4 µM and 6.05 µM and the TGI (HOP-62 NSCLC) was greater than 25 µM. For the same molecule, the GI50 (HOP-92 NSCLC) was 24.2 µM and 6.61 µM, the TGI (HOP-92 NSCLC) was > 25 µM and 19.5 µM and the GI50 (HS 578T breast) was 11.3 µM and 7.01 µM. For the same molecule, the TGI (HS 578T breast) was greater than 25 µM, the GI50 (HT29 colon) was 16.2 µM and 4.74 µM and the TGI (HT29 colon) was greater than 25 µM. The GI50 (IGROV1 ovarian) was 12.8 µM and 2.08 µM, the TGI (IGROV1 ovarian) was greater than 25 µM and the GI50 (K-562 leukemia) was 11.2 µM and 3.48 µM. The TGI (K-562 leukemia) was greater than 25 µM, the GI50 (KM12 colon) was 12.4 µM and 2.25 µM and the TGI (KM12 colon) was greater than 25 µM. For the same molecule, the GI50 (LOX IMVI melanoma) was 16.5 µM and 3.85 µM, the TGI (LOX IMVI melanoma) was greater than 25 µM and the GI50 (M14 melanoma) was 14 µM and 7.08 µM. For the same molecule, the TGI (M14 melanoma) was greater than 25 µM, the GI50 (MALME-3M melanoma) was 12 µM and 6.19 µM and the TGI (MALME-3M melanoma) was greater than 25 µM. For the same molecule, the GI50 (MCF7 breast) was 7.25 µM and 2.98 µM, the TGI (MCF7 breast) was greater than 25 µM and the GI50 (MDA-MB-231 breast) was > 25 µM and 10.3 µM. For the same molecule, the TGI (MDA-MB-231 breast) was greater than 25 µM, the GI50 (MDA-MB-435) was 6.21 µM and 2.54 µM and the TGI (MDA-MB-435) was greater than 25 µM. The GI50 (MOLT-4 leukemia) was 12.2 µM and 7.45 µM, the TGI (MOLT-4 leukemia) was > 25 µM and 18.7 µM and the GI50 (NCI-H226 lung) was > 25 µM and 5.55 µM. For the same molecule, the TGI (NCI-H226 lung) was greater than 25 µM, the GI50 (NCI-H23 lung) was 17.7 µM and 2.23 µM and the TGI (NCI-H23 lung) was greater than 25 µM. For the same molecule, the GI50 (NCI-H460 lung) was 14.6 µM and 3.02 µM, the TGI (NCI-H460 lung) was greater than 25 µM and the GI50 (NCI-H522 lung) was 8.38 µM and 2.85 µM. The TGI (NCI-H522 lung) was > 25 µM and 10 µM, the GI50 (NCI/ADR-RES ovarian) was greater than 25 µM and the TGI (NCI/ADR-RES ovarian) was greater than 25 µM. The GI50 (OVCAR-3 ovarian) was 19.8 µM and 2.73 µM, the TGI (OVCAR-3 ovarian) was > 25 µM and 11.8 µM and the GI50 (OVCAR-4 ovarian) was > 21.4 µM and 4.17 µM. The TGI (OVCAR-4 ovarian) was greater than 25 µM, the GI50 (OVCAR-5 ovarian) was > 25 µM and 6.83 µM and the TGI (OVCAR-5 ovarian) was greater than 25 µM. The GI50 (OVCAR-8 ovarian) was > 21.1 µM and 5.24 µM, the TGI (OVCAR-8 ovarian) was greater than 25 µM and the GI50 (PC-3 prostate) was > 25 µM and 3.9 µM. For the same molecule, the TGI (PC-3 prostate) was greater than 25 µM, the GI50 (RPMI-8226 leukemia) was > 18.4 µM and 2.33 µM and the TGI (RPMI-8226 leukemia) was > 25 µM and 12.1 µM. For the same molecule, the GI50 (RXF 393 renal) was 11.5 µM and 3.82 µM, the TGI (RXF 393 renal) was > 25 µM and 10.7 µM and the GI50 (SF-268 CNS) was 20 µM and 4.36 µM. For the same molecule, the TGI (SF-268 CNS) was greater than 25 µM, the GI50 (SF-295 CNS) was > 25 µM and 5.5 µM and the TGI (SF-295 CNS) was greater than 25 µM. The GI50 (SF-539 CNS) was 11.9 µM and 2.73 µM, the TGI (SF-539 CNS) was > 25 µM and 10.1 µM and the GI50 (SK-MEL-2 melanoma) was 10.1 µM and 4.32 µM. For the same molecule, the TGI (SK-MEL-2 melanoma) was > 25 µM and 12.4 µM, the GI50 (SK-MEL-28 melanoma) was > 23.7 µM and 7.24 µM and the TGI (SK-MEL-28 melanoma) was > 25 µM and 24.4 µM. The GI50 (SK-MEL-5 melanoma) was > 25 µM and 5.17 µM, the TGI (SK-MEL-5 melanoma) was > 25 µM and 12.3 µM and the GI50 (SK-OV-3 ovarian) was 14.1 µM and 3.74 µM. The TGI (SK-OV-3 ovarian) was > 25 µM and 21.2 µM, the GI50 (SN12C renal) was 14.9 µM and 3.46 µM and the TGI (SN12C renal) was greater than 25 µM. The GI50 (SNB-19 CNS) was > 25 µM and 4.34 µM, the TGI (SNB-19 CNS) was greater than 25 µM and the GI50 (SNB-75 CNS) was 10.8 µM and 1.77 µM. For the same molecule, the TGI (SNB-75 CNS) was greater than 25 µM, the GI50 (SR leukemia) was 6.94 µM and 0.888 µM and the TGI (SR leukemia) was > 22.6 µM and 5.23 µM. The GI50 (SW-620 colon) was 9.04 µM and 0.927 µM, the TGI (SW-620 colon) was greater than 25 µM and the GI50 (T-47D breast) was 21.1 µM and 5.26 µM. The TGI (T-47D breast) was greater than 25 µM, the GI50 (TK-10 renal) was > 23.7 µM and 3.55 µM and the TGI (TK-10 renal) was greater than 25 µM. For the same molecule, the GI50 (U251 CNS) was > 20.9 µM and 2.29 µM, the TGI (U251 CNS) was greater than 25 µM and the GI50 (UACC-257 melanoma) was > 25 µM and 5.79 µM. For the same molecule, the TGI (UACC-257 melanoma) was > 25 µM and 19 µM, the GI50 (UACC-62 melanoma) was 14.6 µM and 5.27 µM and the TGI (UACC-62 melanoma) was greater than 25 µM. The GI50 (UO-31 renal) was 16.4 µM and 5.82 µM and the TGI (UO-31 renal) was > 25 µM and 16.8 µM.

Reference: PubChem BioAssay (NCI)
